Data on ten compounds can be found in patent US11505553B2, “2-(Het)aryl-substituted fused heterocycle derivatives as pesticides” (Bayer Aktiengesellschaft, priority 2017, dated 2022).

Common to all, as to assay type: in vivo
The test system of experiment [1] is Ctenocephalides felis. The experiment in a line: Ctenocephalides felis oral test. The conditions noted are these: 48 h, application rate 100 ppm in citrated cattle blood, after 2 days, read-out: efficacy (kill). Here is the method:
Solvent: dimethyl sulfoxide To produce a suitable active ingredient formulation, 10 mg of active ingredient are mixed with 0.5 ml of dimethyl sulfoxide. Dilution with citrated cattle blood gives the desired concentration. About 20 unfed adult cat fleas (Ctenocephalides felis) are placed into a chamber which is closed at the top and bottom with gauze. A metal cylinder whose bottom end is closed with parafilm is placed onto the chamber. The cylinder contains the blood/active ingredient formulation, which can be imbibed by the fleas through the parafilm membrane. After 2 days, the kill in % is determined. 100% means that all of the fleas have been killed; 0% means that none of the fleas have been killed.

Experiment [2] concerns Myzus persicae. The experiment in a line: Myzus persicae oral test. The conditions noted are these: 120 h, after 5 days, read-out: efficacy; for pest or weed control at 4 ppm: application rate 4 ppm; for pest or weed control at 0.8 ppm: application rate 0.8 ppm. How it is done:
Solvent: 100 parts by weight of acetone To produce a suitable active ingredient formulation, 1 part by weight of active ingredient is dissolved with the stated parts by weight of solvent and made up to the desired concentration with water. 50 μl of the active ingredient preparation are transferred into microtitre plates and made up to a final volume of 200 μl with 150 μl of IPL41 insect medium (33%+15% sugar). Subsequently, the plates are sealed with parafilm, which a mixed population of green peach aphids (Myzus persicae) within a second microtitre plate is able to puncture and imbibe the solution. After 5 days, the efficacy in % is determined. 100% means that all the aphids have been killed; 0% means that no aphids have been killed.

In experiment [3] the test system is Ctenocephalides felis. The experiment is described as follows: Ctenocephalides felis in vitro contact test with adult cat fleas. The conditions noted are these: application rate 5 μg/cm^2 (=500 g/ha), after 48 h, adult cat fleas dead or moribund, read-out: efficacy. Here is the method:
For the coating of the test tubes, 9 mg of active ingredient are first dissolved in 1 ml of acetone p.a. and then diluted to the desired concentration with acetone p.a. 250 μl of the solution are distributed homogeneously on the inner walls and the base of a 25 ml glass tube by turning and rocking on an orbital shaker (rocking rotation at 30 rpm for 2 h). With 900 ppm of active ingredient solution and internal surface area 44.7 cm^2, given homogeneous distribution, an area-based dose of 5 μg/cm^2 is achieved. After the solvent has evaporated off, the tubes are populated with 5-10 adult cat fleas (Ctenocephalides felis), sealed with a perforated plastic lid and incubated in a horizontal position at room temperature and ambient humidity. After 48 h, efficacy is determined. To this end, the tubes are stood upright and the fleas are knocked to the base of the tube. Fleas which remain motionless at the base or move in an uncoordinated manner are considered to be dead or moribund. […] 100% efficacy means that all the fleas were dead or moribund. 0% efficacy means that no fleas were harmed.

The test system of experiment [4] is Myzus persicae. The experiment in a line: Myzus persicae spray test. The conditions noted are these: foliar, 120 h, Chinese cabbage leaf discs, after 5 days, read-out: efficacy; for pest or weed control at 100 g/ha: application rate 100 g/ha. How it is done: (§1) Solvent: 78 parts by weight of acetone • • 1.5 parts by weight of dimethylformamide Emulsifier: alkylaryl polyglycol ether To produce a suitable active ingredient formulation, 1 part by weight of active ingredient is dissolved with the specified parts by weight of solvent and made up to the desired concentration with water containing an emulsifier concentration of 1000 ppm. To produce further test concentrations, the formulation is diluted with emulsifier-containing water. Discs of Chinese cabbage leaves (Brassica pekinensis) infested by all stages of the green peach aphid (Myzus persicae) are sprayed with an active ingredient formulation of the desired concentration. After 5 days, the efficacy in % is determined. 100% means that all the aphids have been killed; 0% means that no aphids have been killed.

Experiment [5] concerns Myzus persicae. The experiment in a line: Myzus persicae spray test (MYZUPE), contrastive examples. The conditions noted are these: 120 h, 5 dat, read-out: % efficacy. Here is the method:
as §1, with “78.0” for “78”, “chinese” for “Chinese”, “the desired time,” for “5 days,”, “all” for “all the”

The subject of experiment [6] is Myzus persicae. The experiment in a line: Myzus persicae drench test (MYZUPE D). As to conditions: soil, 240 h, 10 dat, read-out: % efficacy. Here is the method: Solvent: 7 parts by weight of dimethylformamide Emulsifier: 2 parts by weight of alkylaryl polyglycol ether To produce an appropriate active ingredient formulation, 1 part by weight of active ingredient is mixed with the stated amounts of solvent and emulsifier, and the concentrate is diluted with water to the desired concentration, it being necessary to take into account soil volume into which drenching is effected. It should be ensured that a concentration of 40 ppm of emulsifier in the soil is not exceeded. For production of further test concentrations, the mixture is diluted with water. Savoy cabbage plants (Brassica oleracea) in earth pots, infested by all stages of the green peach aphid (Myzus persicae), are drenched with an active ingredient formulation of the desired concentration. After the desired time, the efficacy in % is determined. 100% means that all aphids have been killed; 0% means that no aphids have been killed.

Experiment [7] relates to Nilaparvata lugens. The experiment is described as follows: Nilaparvata lugens spray test (NILALU). As to conditions: 96 h, 4 dat, read-out: % efficacy. How it is done: Solvent: 52.5 parts by weight of acetone • 7 parts by weight of dimethylformamide
Emulsifier: alkylaryl polyglycol ether
To produce an appropriate active ingredient formulation, 1 part by weight of active ingredient is dissolved with the stated parts by weight of solvent and made up with water containing an emulsifier concentration of 1000 ppm until the desired concentration is attained. For production of further test concentrations, the mixture is diluted with emulsifier-containing water. If addition of ammonium salts or/and penetrants is required, these are each added to the preparation solution in a concentration of 1000 ppm.
Rice plants (Oryza sativa) are sprayed with an active ingredient formulation of the desired concentration and then populated with larvae of the rice cicada (Nilaparvata lugens).
After the desired time, the efficacy in % is determined. 100% means that all rice cicadas have been killed; 0% means that no rice cicadas have been killed.

The test system of experiment [8] is Nilaparvata lugens. The experiment in a line: Nilaparvata lugens test (NILALU S). The conditions noted are these: read-out: % efficacy. How it is done:
Solvent: 14 parts by weight of dimethylformamide Emulsifier: 2 parts by weight of alkylaryl polyglycol ether To produce an appropriate active ingredient formulation, 1 part by weight of active ingredient is dissolved with the stated parts by weight of solvent and emulsifier and made up with water until the desired concentration is attained. For production of further test concentrations, the mixture is diluted with water. If addition of ammonium salts or/and penetrants (rapeseed oil methyl ester) is required, these are each pipetted into the finished preparation solution in a concentration of 1000 ppm after the dilution. Rice plants (Oryza sativa, var. Balilla) are treated by spraying with the active ingredient formulation in the desired concentration and then populated with L3 larvae of the brown planthopper (Nilaparvata lugens). After the desired time, the kill in % is determined. 100% means that all planthoppers have been killed and 0%, means that no planthoppers have been killed.

For experiment [9], the system named is Myzus persicae. The experiment is described as follows: Myzus persicae spray test (MYZUPE S), bell pepper plants. The conditions noted are these: 144 h, 6 dat, read-out: % efficacy. How it is done: Solvent: 14 parts by weight of dimethylformamide Emulsifier: alkylaryl polyglycol ether To produce an appropriate active ingredient formulation, 1 part by weight of active ingredient is dissolved with the stated parts by weight of solvent and made up with water containing an emulsifier concentration of 1000 ppm until the desired concentration is attained. For production of further test concentrations, the mixture is diluted with emulsifier-containing water. If addition of ammonium salts or/and penetrants is required, these are each added to the preparation solution in a concentration of 1000 ppm. Bell pepper plants (Capsicum annuum) severely infested by the green peach aphid (Myzus persicae) are treated by spraying with the active ingredient formulation in the desired concentration. After the desired time, the kill in % is determined. 100% means that all animals have been killed; 0% means that no animals have been killed.

Experiment [10] relates to Phaedon cochleariae. The experiment in a line: Phaedon cochleariae spray test (PHAECO), contrastive examples. The conditions noted are these: 168 h, 100 g/ha, 7 dat, read-out: % efficacy. How it is done:
Solvent: 78.0 parts by weight of acetone • • 1.5 parts by weight of dimethylformamide Emulsifier: alkylaryl polyglycol ether To produce an appropriate active ingredient formulation, 1 part by weight of active ingredient is dissolved with the stated parts by weight of solvent and made up with water containing an emulsifier concentration of 1000 ppm until the desired concentration is attained. For production of further test concentrations, the mixture is diluted with emulsifier-containing water. Discs of chinese cabbage leaves (Brassica pekinensis) are sprayed with an active ingredient formulation of the desired concentration and, after drying, populated with larvae of the mustard beetle (Phaedon cochleariae). After the desired time, the efficacy in % is determined. 100% means that all beetle larvae have been killed; 0% means that no beetle larvae have been killed.

Molecules are shown by their SMILES. Read-outs that look alike come from different tables or passages of the source.

For `CN(C)C(=O)Nc1ccc(S(C)(=O)=O)c(-c2nc3cc(C(F)(F)F)nnc3n2C)n1` [Example I-4], in [1], the pest or weed control at 100 ppm turned out to be 100%. The pest or weed control at 4 ppm in [2] was found to be 100%.

As for `CNC(=O)Nc1ccc(S(C)(=O)=O)c(-c2nc3cc(C(F)(F)F)nnc3n2C)n1` [Example I-5], the pest or weed control at 5 µg/cm2, 500 g/ha in experiment [3] came out at 100%. The pest or weed control at 100 ppm in experiment [1] came to 100%. Further, in [2], the pest or weed control at 0.8 ppm was 100% and the pest or weed control at 4 ppm was found to be 100%. For the same compound, in experiment [4], the pest or weed control at 100 g/ha was found to be 90%.

`CCS(=O)(=O)c1ccc(NC(=O)NC)nc1-c1nc2cc(C(F)(F)C(F)(F)F)nnc2n1C` [Example I-7]: the Emax at 4 g/ha in experiment [5] is 100%.

Regarding `CCS(=O)(=O)c1ccc(N(C)C(=O)NC)nc1-c1nc2cc(C(F)(F)C(F)(F)F)nnc2n1C` [Example I-8], the pest or weed control at 4 ppm in [2] is 100%. Besides, the Emax at 0.8 ppm in [6] amounted to 99%. Also, in experiment [7], the Emax at 4 g/ha came to 50%.

Regarding `CCS(=O)(=O)c1ccc(NC(=O)N(C)C)nc1-c1nc2cc(C(F)(F)C(F)(F)F)nnc2n1C` [Example I-9], in experiment [2], the pest or weed control at 4 ppm was 100%. The Emax at 0.8 ppm in experiment [6] was found to be 98%.

Take `CNC(=O)Nc1ccc(S(C)(=O)=O)c(-c2nc3cc(C(F)(F)C(F)(F)F)nnc3n2C)n1` [Example I-10]: in [2], the pest or weed control at 4 ppm was determined as 100%. The Emax at 0.8 ppm was found to be 95% in [8] (168 h, 7 dat) and 80% in [8] (336 h, 14 dat).

Turning to `CN(C)C(=O)Nc1ccc(S(C)(=O)=O)c(-c2nc3cc(C(F)(F)C(F)(F)F)nnc3n2C)n1` [Example I-11], the pest or weed control at 4 ppm in experiment [2] amounted to 100%. Moreover, the Emax at 0.8 ppm in experiment [6] was 95%; in [8] (336 h, 14 dat), 85%.

As to `CCS(=O)(=O)c1ccc(N(C)C(=O)N(C)C)nc1-c1nc2cc(C(F)(F)F)nnc2n1C` [Example I-12], in experiment [2], the pest or weed control at 0.8 ppm was determined as 100% and the pest or weed control at 4 ppm was 100%. Besides, the pest or weed control at 20 g/ha in experiment [4] (application rate 20 g/ha) was determined as 90%. Further, the pest or weed control at 100 g/ha in [4] was 100%. Moreover, in experiment [5], the Emax at 4 g/ha was determined as 90%. In addition, the Emax at 0.8 ppm in [9] is 90%.

Regarding `CCS(=O)(=O)c1ccc(N(C)C(=O)N(C)C)nc1-c1nc2cc(C(F)(F)C(F)(F)F)nnc2n1C` [Example I-13], the pest or weed control at 4 ppm in experiment [2] stood at 100%. Further, in experiment [5], the Emax at 4 g/ha was 90%. In experiment [6], the Emax at 0.8 ppm is 95%.

Consider `CCNC(=O)Nc1ccc(S(=O)(=O)CC)c(-c2nc3cc(C(F)(F)F)nnc3n2C)n1` [Prior art according to WO2017/025419, reference compound], for which the Emax at 100 g/ha in experiment [10] stood at 50%. Further, the Emax at 4 g/ha in experiment [5] and in experiment [7] was 0% throughout. Also, the Emax at 0.8 ppm in [9] came to 0%.
